Measured values taken from paper PMC8188729 (Nature, 2020).
Where “and” joins values, the source holds several entries; their conditions need not be identical. Equal values may be shown once. Read-outs that look alike come from different tables or passages of the source.

What was measured:
HIV-1 CA protein = format: biochemical; conditions: 20 μM CA, 2 M NaCl
[1] = Study GS-US-200-4070: safety and tolerability in healthy participants; format: in vivo, human; conditions: for Acne / Any AE / Back pain / Dizziness / Headache / Injection site bruising / Injection site erythema / Injection site induration / Injection site nodule / Injection site pain / Injection site pruritus / Injection site swelling / Nausea / Oropharyngeal pain / Skin mass / Viral upper respiratory tract infection: healthy
CA hexamer = CA hexamer (Human immunodeficiency virus type 1 group M subtype B, UniProt P12493, A146C/E177C/M317A/W316A); experiment: Surface plasmon resonance binding assay; parameters: species or system HIV-1
HIV-1IIIb [2] = experiment: microbe, parasite or virus in culture; format: cell-based
Cytotoxicity assay [3] = format: cell-based; conditions: human, quiescent PBMCs
[4] = Study GS-US-200-4072: pharmacokinetics in participants living with HIV; format: in vivo, human; conditions: for CD9 / paEC95 (mean), fold EC95 coverage on day 9: PLWH; for concentration at 9 day: both, human, plasma, sc
Cytotoxicity assay [5] = format: cell-based; conditions: human, MRC-5 cells
clinical HIV-1 isolates = experiment: 7-day RT endpoint antiviral assay in human PBMCs, clinical HIV-1 isolates; conditions: Human immunodeficiency virus 1, PBMC
Cytotoxicity assay [6] = format: cell-based; conditions: human, primary CD4+ T-lymphocytes
CA monomer = CA monomer (Human immunodeficiency virus type 1 group M subtype B, UniProt P03348); experiment: biochemical; format: binding
[7] = format: in vivo, human; conditions: for AUCexp: healthy volunteers, mean (%CV); for time plasma concentrations exceeded paEC95: single SC, healthy participants
HIV-1IIIb [8] = experiment: In vitro two-drug combination study in HIV-1IIIB-infected MT-2 cells
Cytotoxicity assay [9] = format: cell-based; conditions: human, monocyte-derived macrophages
Stimulated PBMCs = experiment: Cytotoxicity assay; format: cell-based, human; conditions: PBMCs
Cytotoxicity assay [10] = format: cell-based, human; conditions: human, stimulated PBMCs
HIV-1 = format: in vivo; conditions: for Maximum HIV-1 RNA change through day 9: individual participants
HIV-1 PR = HIV-1 PR (Human immunodeficiency virus type 1 group M subtype B, UniProt P04585); experiment: HIV-1 PR cleavage activity in vitro; format: biochemical
HIV-1 DNA = experiment: Quantitation of HIV-1 DNA forms in infected MT-2 cells by PCR; conditions: GS-6207 at 1.25 nM
[11] = both, human, plasma, sc, 100 mg
[12] = both, human, plasma, sc, 300 mg
[13] = both, human, plasma, sc, 450 mg

CC(C)(C#Cc1ccc(-c2ccc(Cl)c3c(NS(C)(=O)=O)nn(CC(F)(F)F)c23)c([C@H](Cc2cc(F)cc(F)c2)NC(=O)Cn2nc(C(F)(F)F)c3c2C(F)(F)[C@@H]2C[C@H]32)n1)S(C)(=O)=O [GS-6207]
rate and extent of in vitro capsid assembly (HIV-1 CA protein): dose-dependent increase in the rate and extent of in vitro capsid assembly
Acne ([1]; 30 mg (n = 8)): 0 n (%)
Any AE ([1]; 30 mg (n = 8)): 4 (50) n (%)
Back pain ([1]; 30 mg (n = 8)): 0 n (%)
Dizziness ([1]; 30 mg (n = 8)): 0 n (%)
Headache ([1]; 30 mg (n = 8)): 2 (25) n (%)
Injection site bruising ([1]; 30 mg (n = 8)): 0 n (%)
Injection site erythema ([1]; 30 mg (n = 8)): 1 (13) n (%)
Injection site induration ([1]; 30 mg (n = 8)): 0 n (%)
Injection site nodule ([1]; 30 mg (n = 8)): 0 n (%)
Injection site pain ([1]; 30 mg (n = 8)): 0 n (%)
Injection site pruritus ([1]; 30 mg (n = 8)): 1 (13) n (%)
Injection site swelling ([1]; 30 mg (n = 8)): 1 (13) n (%)
Nausea ([1]; 30 mg (n = 8)): 1 (13) n (%)
Oropharyngeal pain ([1]; 30 mg (n = 8)): 1 (13) n (%)
Skin mass ([1]; 30 mg (n = 8)): 0 n (%)
Viral upper respiratory tract infection ([1]; 30 mg (n = 8)): 0 n (%)
Acne ([1]; 100 mg (n = 8)): 0 n (%)
Any AE ([1]; 100 mg (n = 8)): 8 (100) n (%)
Back pain ([1]; 100 mg (n = 8)): 0 n (%)
Dizziness ([1]; 100 mg (n = 8)): 0 n (%)
Headache ([1]; 100 mg (n = 8)): 1 (13) n (%)
Injection site bruising ([1]; 100 mg (n = 8)): 0 n (%)
Injection site erythema ([1]; 100 mg (n = 8)): 5 (63) n (%)
Injection site induration ([1]; 100 mg (n = 8)): 0 n (%)
Injection site nodule ([1]; 100 mg (n = 8)): 5 (63) n (%)
Injection site pain ([1]; 100 mg (n = 8)): 3 (38) n (%)
Injection site pruritus ([1]; 100 mg (n = 8)): 0 n (%)
Injection site swelling ([1]; 100 mg (n = 8)): 5 (63) n (%)
Nausea ([1]; 100 mg (n = 8)): 0 n (%)
Oropharyngeal pain ([1]; 100 mg (n = 8)): 0 n (%)
Skin mass ([1]; 100 mg (n = 8)): 0 n (%)
Viral upper respiratory tract infection ([1]; 100 mg (n = 8)): 0 n (%)
Acne ([1]; 300 mg (n = 8)): 0 n (%)
Any AE ([1]; 300 mg (n = 8)): 7 (88) n (%)
Back pain ([1]; 300 mg (n = 8)): 2 (25) n (%)
Dizziness ([1]; 300 mg (n = 8)): 1 (13) n (%)
Headache ([1]; 300 mg (n = 8)): 2 (25) n (%)
Injection site bruising ([1]; 300 mg (n = 8)): 1 (13) n (%)
Injection site erythema ([1]; 300 mg (n = 8)): 6 (75) n (%)
Injection site induration ([1]; 300 mg (n = 8)): 6 (75) n (%)
Injection site nodule ([1]; 300 mg (n = 8)): 3 (38) n (%)
Injection site pain ([1]; 300 mg (n = 8)): 6 (75) n (%)
Injection site pruritus ([1]; 300 mg (n = 8)): 1 (13) n (%)
Injection site swelling ([1]; 300 mg (n = 8)): 1 (13) n (%)
Nausea ([1]; 300 mg (n = 8)): 1 (13) n (%)
Oropharyngeal pain ([1]; 300 mg (n = 8)): 0 n (%)
Skin mass ([1]; 300 mg (n = 8)): 1 (13) n (%)
Viral upper respiratory tract infection ([1]; 300 mg (n = 8)): 0 n (%)
Acne ([1]; 450 mg (n = 8)): 2 (25) n (%)
Any AE ([1]; 450 mg (n = 8)): 6 (75) n (%)
Back pain ([1]; 450 mg (n = 8)): 0 n (%)
Dizziness ([1]; 450 mg (n = 8)): 1 (13) n (%)
Headache ([1]; 450 mg (n = 8)): 0 n (%)
Injection site bruising ([1]; 450 mg (n = 8)): 0 n (%)
Injection site erythema ([1]; 450 mg (n = 8)): 3 (38) n (%)
Injection site induration ([1]; 450 mg (n = 8)): 2 (25) n (%)
Injection site nodule ([1]; 450 mg (n = 8)): 1 (13) n (%)
Injection site pain ([1]; 450 mg (n = 8)): 3 (38) n (%)
Injection site pruritus ([1]; 450 mg (n = 8)): 1 (13) n (%)
Injection site swelling ([1]; 450 mg (n = 8)): 0 n (%)
Nausea ([1]; 450 mg (n = 8)): 0 n (%)
Oropharyngeal pain ([1]; 450 mg (n = 8)): 0 n (%)
Skin mass ([1]; 450 mg (n = 8)): 1 (13) n (%)
Viral upper respiratory tract infection ([1]; 450 mg (n = 8)): 2 (25) n (%)
safety and tolerability ([1]; single SC 30 to 450 mg, healthy participants): generally safe and well tolerated
Kd (CA hexamer): 0.24 ± 0.09 nM
koff (CA hexamer; CA hexamer): 1.4 ± 0.4 x 10^−5 s^−1
kon (CA hexamer; CA hexamer): 6.5 ± 0.3 x 10^4 M^−1s^−1
EC50 (HIV-1IIIb [2]; Human immunodeficiency virus 1, MT4, read-out: mean EC50): 0.105 nM
EC95 (HIV-1IIIb [2]; calculated from EC50 and Hill coefficient): 0.23 nM
CC50 (Cytotoxicity assay [3]): > 44400 nM
CD9 / paEC95 (mean), fold EC95 coverage on day 9 ([4]; 20 mg SC): 0.67
CD9 / paEC95 (mean), fold EC95 coverage on day 9 ([4]; 50 mg SC): 1.14
CD9 / paEC95 (mean), fold EC95 coverage on day 9 ([4]; 150 mg SC): 3.33
CD9 / paEC95 (mean), fold EC95 coverage on day 9 ([4]; 450 mg SC): 9.87
concentration at 9 day ([4]; 20 mg): 2.58 ng/mL
concentration at 9 day ([4]; 50 mg): 4.4 ng/mL
concentration at 9 day ([4]; 150 mg): 12.9 ng/mL
concentration at 9 day ([4]; 450 mg): 38.2 ng/mL
CC50 (Cytotoxicity assay [5]): > 44400 nM
EC50 (clinical HIV-1 isolates; read-out: EC50 range): 0.02 to 0.16 nM
EC50 (clinical HIV-1 isolates; read-out: mean EC50): 0.05 nM
CC50 (Cytotoxicity assay [6]): > 50000 nM
Kd (CA monomer): 2.5 nM
AUCexp ([7]; 30 mg SC): 17.6 (69.4) %
AUCexp ([7]; 100 mg SC): 6.78 (65.0) %
AUCexp ([7]; 300 mg SC): 5.39 (126) %
AUCexp ([7]; 450 mg SC): 3.29 (69.9) %
AUC(0-inf) ([7]; both, human, plasma, sc, 30 mg): 8700 ng·h/mL
AUC(0-t) ([7]; both, human, plasma, sc, 30 mg): 5500 ng·h/mL
Cmax ([7]; both, human, plasma, sc, 30 mg): 3.2 ng/mL
half-life ([7]; both, human, plasma, sc, 30 mg): 37 days
AUC(0-inf) [7, 11]: 27300 ng·h/mL
AUC(0-t) [7, 11]: 23600 ng·h/mL
Cmax [7, 11]: 14.7 ng/mL
half-life [7, 11]: 31.9 days
AUC(0-inf) [7, 12]: 86100 ng·h/mL
AUC(0-t) [7, 12]: 73100 ng·h/mL
Cmax [7, 12]: 47.9 ng/mL
half-life [7, 12]: 45.4 days
AUC(0-inf) [7, 13]: 108000 ng·h/mL
AUC(0-t) [7, 13]: 97600 ng·h/mL
Cmax [7, 13]: 58.4 ng/mL
Tmax [7, 13]: 14 days
half-life [7, 13]: 39.7 days
time plasma concentrations exceeded paEC95 ([7]; doses ≥ 100 mg): ≥ 12 weeks
time plasma concentrations exceeded paEC95 ([7]; doses ≥ 300 mg): > 24 weeks
duration of sustained plasma exposure at antivirally active concentrations ([7]; single subcutaneous dose 450 mg): > 6 months
Synergy volume (HIV-1IIIb [8]): 18 ± 8 μM^2.%
CC50 (Cytotoxicity assay [9]): > 50000 nM
therapeutic index (CC50/EC50) (Stimulated PBMCs): > 1,000,000
CC50 (Cytotoxicity assay [10]): > 50000 nM
Maximum HIV-1 RNA change through day 9 (HIV-1; 20 mg): −0.83 log10 copies ml^−1 and −1.58 log10 copies ml^−1 and −1.74 log10 copies ml^−1 and −1.43 log10 copies ml^−1 and −1.33 log10 copies ml^−1 and −1.21 log10 copies ml^−1
Maximum HIV-1 RNA change through day 9 (HIV-1; 50 mg): −1.55 log10 copies ml^−1 and −1.61 log10 copies ml^−1 and −2.32 log10 copies ml^−1 and −1.16 log10 copies ml^−1 and −1.73 log10 copies ml^−1 and −2.39 log10 copies ml^−1
Maximum HIV-1 RNA change through day 9 (HIV-1; 150 mg): −2.06 log10 copies ml^−1 and −1.68 log10 copies ml^−1 and −1.86 log10 copies ml^−1 and −1.49 log10 copies ml^−1 and −1.87 log10 copies ml^−1 and −1.62 log10 copies ml^−1
Maximum HIV-1 RNA change through day 9 (HIV-1; 450 mg): −2.32 log10 copies ml^−1 and −2.86 log10 copies ml^−1 and −2.11 log10 copies ml^−1 and −1.83 log10 copies ml^−1 and −1.58 log10 copies ml^−1 and −2.52 log10 copies ml^−1
mean maximum reduction in plasma HIV-1 RNA through 9 days (HIV-1; single 20 mg SC): 1.35 log10
mean maximum reduction in plasma HIV-1 RNA through 9 days (HIV-1; single 50 mg SC): 1.79 log10
mean maximum reduction in plasma HIV-1 RNA through 9 days (HIV-1; single 150 mg SC): 1.76 log10
mean maximum reduction in plasma HIV-1 RNA through 9 days (HIV-1; single 450 mg SC): 2.20 log10 and 2.2 log10
IC50 (HIV-1 PR): > 50000 nM
HIV cDNA synthesis (late RT products) (HIV-1 DNA): did not alter
formation of 2-LTR circles (HIV-1 DNA): significantly reduced
formation of integrated proviruses (HIV-1 DNA): significantly reduced
